Measured values: the supplement of paper PMC10307832

Experiments:
Assay in all cases: relative viability (nuclei count vs DMSO), 5 days (fraction); higher = more cells survive
201T = system: 201T
How it was run: (§1)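 One day after seeding in 1536-well plates, lung cancer cell lines were dosed by pin tool. Dosing was either single-drug or a fixed anchor-drug dose plus five library-drug doses (not always all listed) in √10 steps. After 5 days, nuclei were stained in one fix-and-stain step and counted on 4× images, and relative viability is the nuclei count of treated wells over that of vehicle wells, given as the median of duplicate plates.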

NCI-H1650 = system: NCI-H1650
How it was run: as §1

NCI-H460 = system: NCI-H460
How it was run: as §1

CAL-12T = system: CAL-12T
How it was run: as §1

H3255 = system: H3255
How it was run: as §1

NCI-H1651 = system: NCI-H1651
How it was run: as §1

NCI-H1792 = system: NCI-H1792
How it was run: as §1

NCI-H1915 = system: NCI-H1915
How it was run: as §1

NCI-H650 = system: NCI-H650
How it was run: as §1

NCI-H1944 = system: NCI-H1944
How it was run: as §1

BEN = system: BEN
How it was run: as §1

ABC-1 = system: ABC-1
How it was run: as §1

NCI-H2023 = system: NCI-H2023
How it was run: as §1

NCI-H520 = system: NCI-H520
How it was run: as §1

NCI-H661 = system: NCI-H661
How it was run: as §1

LC-2-ad = system: LC-2-ad
How it was run: as §1

PC-3 [JPC-3] = system: PC-3 [JPC-3]
How it was run: as §1

NCI-H727 = system: NCI-H727
How it was run: as §1

NCI-H2087 = system: NCI-H2087
How it was run: as §1

NCI-H596 = system: NCI-H596
How it was run: as §1

LCLC-97TM1 = system: LCLC-97TM1
How it was run: as §1

A-427 = system: A-427
How it was run: as §1

CC1(C)CCC(c2ccc(Cl)cc2)=C(CN2CCN(c3ccc(C(=O)NS(=O)(=O)c4ccc(N[C@H](CCN5CCOCC5)CSc5ccccc5)c(S(=O)(=O)C(F)(F)F)c4)cc3)CC2)C1 [Navitoclax] + CS(=O)(=O)CCNCc1ccc(-c2ccc3ncnc(Nc4ccc(OCc5cccc(F)c5)c(Cl)c4)c3c2)o1 [Lapatinib] (partner 2 µM)
relative viability (201T; first compound 0.005 µM): 1.06 | relative viability (201T; first compound 0.01581 µM): 1.12 | relative viability (201T; first compound 0.05 µM): 0.992 | relative viability (201T; first compound 0.1581 µM): 1.03 | relative viability (201T; first compound 0.5 µM): 1.06 | relative viability (NCI-H1650; first compound 0.005 µM): 0.818 | relative viability (NCI-H1650; first compound 0.01581 µM): 1.07 | relative viability (NCI-H1650; first compound 0.05 µM): 0.88 | relative viability (NCI-H1650; first compound 0.1581 µM): 1.02 | relative viability (NCI-H1650; first compound 0.5 µM): 0.957 | relative viability (NCI-H460; first compound 0.005 µM): 0.909 | relative viability (NCI-H460; first compound 0.01581 µM): 0.917 | relative viability (NCI-H460; first compound 0.05 µM): 1.09 | relative viability (NCI-H460; first compound 0.1581 µM): 0.892 | relative viability (NCI-H460; first compound 0.5 µM): 0.905 | relative viability (CAL-12T; first compound 0.005 µM): 0.751 | relative viability (CAL-12T; first compound 0.01581 µM): 0.504 | relative viability (CAL-12T; first compound 0.05 µM): 0.589 | relative viability (CAL-12T; first compound 0.1581 µM): 0.738 | relative viability (CAL-12T; first compound 0.5 µM): 0.637 | relative viability (H3255; first compound 0.005 µM): 0.271 | relative viability (H3255; first compound 0.01581 µM): 0.258 | relative viability (H3255; first compound 0.05 µM): 0.226 | relative viability (H3255; first compound 0.1581 µM): 0.25 | relative viability (H3255; first compound 0.5 µM): 0.19 | relative viability (NCI-H1651; first compound 0.005 µM): 0.767 | relative viability (NCI-H1651; first compound 0.01581 µM): 0.984 | relative viability (NCI-H1651; first compound 0.1581 µM): 0.803 | relative viability (NCI-H1651; first compound 0.5 µM): 0.837 | relative viability (NCI-H1792; first compound 0.005 µM): 0.901 | relative viability (NCI-H1792; first compound 0.01581 µM): 1.05 | relative viability (NCI-H1792; first compound 0.05 µM): 0.662 | relative viability (NCI-H1792; first compound 0.1581 µM): 0.938 | relative viability (NCI-H1792; first compound 0.5 µM): 0.878 | relative viability (NCI-H1915; first compound 0.005 µM): 0.915 | relative viability (NCI-H1915; first compound 0.01581 µM): 0.953 | relative viability (NCI-H1915; first compound 0.05 µM): 0.819 | relative viability (NCI-H1915; first compound 0.1581 µM): 0.862 | relative viability (NCI-H1915; first compound 0.5 µM): 0.868 | relative viability (NCI-H650; first compound 0.005 µM): 0.709 | relative viability (NCI-H650; first compound 0.01581 µM): 0.977 | relative viability (NCI-H650; first compound 0.05 µM): 1.07 | relative viability (NCI-H650; first compound 0.1581 µM): 0.894 | relative viability (NCI-H650; first compound 0.5 µM): 0.881 | relative viability (NCI-H1944; first compound 0.005 µM): 0.869 | relative viability (NCI-H1944; first compound 0.01581 µM): 0.871 | relative viability (NCI-H1944; first compound 0.05 µM): 0.629 | relative viability (NCI-H1944; first compound 0.1581 µM): 0.788 | relative viability (NCI-H1944; first compound 0.5 µM): 0.833 | relative viability (BEN; first compound 0.005 µM): 0.718 | relative viability (BEN; first compound 0.01581 µM): 0.596 | relative viability (BEN; first compound 0.05 µM): 0.772 | relative viability (BEN; first compound 0.1581 µM): 0.714 | relative viability (BEN; first compound 0.5 µM): 0.647 | relative viability (ABC-1; first compound 0.005 µM): 1.1 | relative viability (ABC-1; first compound 0.01581 µM): 1.46 | relative viability (ABC-1; first compound 0.05 µM): 1.09 | relative viability (ABC-1; first compound 0.1581 µM): 1.19 | relative viability (ABC-1; first compound 0.5 µM): 1.05 | relative viability (NCI-H2023; first compound 0.005 µM): 0.953 | relative viability (NCI-H2023; first compound 0.01581 µM): 1.13 | relative viability (NCI-H2023; first compound 0.05 µM): 0.685 | relative viability (NCI-H2023; first compound 0.1581 µM): 0.927 | relative viability (NCI-H2023; first compound 0.5 µM): 0.816 | relative viability (NCI-H520; first compound 0.005 µM): 0.855 | relative viability (NCI-H520; first compound 0.01581 µM): 0.965 | relative viability (NCI-H520; first compound 0.05 µM): 0.967 | relative viability (NCI-H520; first compound 0.1581 µM): 0.763 | relative viability (NCI-H520; first compound 0.5 µM): 0.758 | relative viability (NCI-H661; first compound 0.005 µM): 0.542 | relative viability (NCI-H661; first compound 0.01581 µM): 0.613 | relative viability (NCI-H661; first compound 0.05 µM): 0.484 | relative viability (NCI-H661; first compound 0.1581 µM): 0.504 | relative viability (NCI-H661; first compound 0.5 µM): 0.391 | relative viability (LC-2-ad; first compound 0.005 µM): 0.936 | relative viability (LC-2-ad; first compound 0.01581 µM): 1.02 | relative viability (LC-2-ad; first compound 0.05 µM): 0.898 | relative viability (LC-2-ad; first compound 0.1581 µM): 1.01 | relative viability (LC-2-ad; first compound 0.5 µM): 0.96 | relative viability (PC-3 [JPC-3]; first compound 0.005 µM): 0.403 | relative viability (PC-3 [JPC-3]; first compound 0.01581 µM): 0.438 | relative viability (PC-3 [JPC-3]; first compound 0.05 µM): 0.441 | relative viability (PC-3 [JPC-3]; first compound 0.1581 µM): 0.474 | relative viability (PC-3 [JPC-3]; first compound 0.5 µM): 0.487 | relative viability (NCI-H727; first compound 0.005 µM): 0.925 | relative viability (NCI-H727; first compound 0.01581 µM): 1.01 | relative viability (NCI-H727; first compound 0.1581 µM): 0.982 | relative viability (NCI-H727; first compound 0.5 µM): 0.657 | relative viability (NCI-H2087; first compound 0.005 µM): 1.15 | relative viability (NCI-H2087; first compound 0.01581 µM): 1.06 | relative viability (NCI-H2087; first compound 0.05 µM): 0.837 | relative viability (NCI-H2087; first compound 0.1581 µM): 0.925 | relative viability (NCI-H2087; first compound 0.5 µM): 1.02 | relative viability (NCI-H596; first compound 0.005 µM): 1.12 | relative viability (NCI-H596; first compound 0.01581 µM): 1.23 | relative viability (NCI-H596; first compound 0.05 µM): 0.955 | relative viability (NCI-H596; first compound 0.1581 µM): 1.28 | relative viability (NCI-H596; first compound 0.5 µM): 1.06 | relative viability (LCLC-97TM1; first compound 0.005 µM): 0.884 | relative viability (LCLC-97TM1; first compound 0.01581 µM): 1.21 | relative viability (LCLC-97TM1; first compound 0.05 µM): 0.865 | relative viability (LCLC-97TM1; first compound 0.1581 µM): 0.856 | relative viability (LCLC-97TM1; first compound 0.5 µM): 1.17 | relative viability (A-427; first compound 0.005 µM): 1.05 | relative viability (A-427; first compound 0.01581 µM): 0.956 | relative viability (A-427; first compound 0.05 µM): 0.825 | relative viability (A-427; first compound 0.1581 µM): 1.05 | relative viability (A-427; first compound 0.5 µM): 1.06
